Reference: patent publication US20140314697A1, “Method for Inhibiting Inflammation and Reducing Melanophilin Expression with Glycine Derivatives And the Composition Thereof” (CORUM INC., priority 2013, published 2014)
Marks after values point to notes of the source that are not given here.

What was measured:
[1] = test system: Mouse MIP-2 secretion, RAW264.7; test: Mouse MIP-2 production in Raw264.7 cells (ELISA); assay type: cell-based; conditions: for Mouse MIP-2 Content, Average / Mouse MIP-2 Content, Entry 2 / Mouse MIP-2 Content, Entry 1 / Mouse MIP-2 Content, Entry 3: Raw264.7, LPS & IFN-r, 24 hours, Positive Control 100%; for Mouse MIP-2 Content, Entry 2: passage N + 3; for Mouse MIP-2 Content, Entry 1: passage N + 5; for Mouse MIP-2 Content, Entry 3: passage N + 6
Experimental: Murine macrophage cell line RAW264.7 (BCRC No. 60001)
Complete Medium (as negative control): DMEM medium with 10% Fetal Bovine Serum
Testing Medium (as positive control): 100 ng/mL LPS and 10 ng/mL IFN-r in Complete Medium
a. Rinse the confluent Raw264.7 cells with sterile D-PBS then trypsinize all cells and perform cell counting.
b. Dilute the cell density to 2E+05/mL and seed 0.1 mL cell liquid (equals to 2E+04 cells) each well in 96-well plate.
c. Incubate Raw264.7 cells at 37° C., 5% CO2 for about 24 hours.
d. Prepared 2× dosing solution of testing material in 2× Testing Medium (means w/ 200 ng/mL ? LPS&20 ng/mL ? IFN-r): 0.8%, 0.4%, 0.2%, 0.1% (Final testing material: 0.4%, 0.2%, 0.1%, 0.05%)
e. […] Add 100 μL controls and testing materials in different concentrations into Raw264.7 cells in 96 well plates. Controls/Test materials should be tested at least three wells.
f. Incubate Raw264.7 cells at 37° C., 5% CO2 for about 24 hours.
g. After incubating for about 24 hours, collect the supernatant of controls and testing materials.
h. Determine the IL-6/MIP-2 content of the supernatant by R&D ELISA kit as mentioned previously.

[2] = test system: Human IL-8 secretion, Normal Human Epidermal Keratinocytes (NHEK); test: Human IL-8 production in UVB-irradiated NHEK (ELISA); assay type: cell-based; conditions: for Human IL-8 Content, Average: 40 mJ/cm^2 UVB; for Human IL-8 Content, Average / Human IL-8 Content, Entry 1 / Human IL-8 Content, Entry 2 / Human IL-8 Content, Entry 3: Positive Control 100%; for Human IL-8 Content, Entry 1: passage 2 + 2, 40 mJ/cm^2 UVB; for Human IL-8 Content, Entry 2 / Human IL-8 Content, Entry 3: passage 2 + 3, 40 mJ/cm^2 UVB
Experimental: (§1) Normal Human Epidermal Keratinocytes (NHEK) (PromoCell No. C-12008);
(§2) Positive Control: 40 mJ/cm^2 UVB,
(§3) Negative Control: No UVB irradiation;
(§4) a. Rinse the confluent NHEK cells with sterile D-PBS then trypsinize all cells and perform cell counting.
(§5) b. Dilute the cell density to 4˜8E+04/mL and seed 0.5 mL cell liquid (equals to 2˜4E+04 cells) each well in 24 well plate.
(§6) c. Incubate NHEK cells at 37° C., 5% CO2 until subconfluence.
(§7) d. Prepared dosing solution of testing material in Complete Medium: 0.4%, 0.2%, 0.1%, 0.05%.
(§8) e. Rinse the NHEK cells with sterile D-PBS and discard rinse buffer. Add 400 μL of controls and testing materials in different concentrations into NHEK cells in 24 well plates.
(§9) f. Pre-incubate NHEK cells with testing material at 37° C., 5% CO2 for about 6 hours.
(§10) g. After pre-incubating for about 6 hours, wash the NHEK cells with sterile D-PBS for twice then add […] sterile D-PBS for UVB irradiation.
(§11) h. UVB intensity is about 2300 μW/cm^2 and UVB energy is about 40 mJ/cm^2.
(§12) i. After UVB irradiation, discard sterile D-PBS and wash again. Add 400 μL of the same dosing solution in to each wells.
(§13) j. Post-incubate at 37° C., 5% CO2 for about 18 hours.
(§14) k. After post-incubating for 18 hours, collect the supernatant of controls and testing materials.
(§15) l. Determine the IL-6/IL-8 content of the supernatant by R&D ELISA kit as mentioned previously.
(§16) Normal Human Epidermal Keratinocytes (NHEK) were treated by the above-mentioned glycine derivatives for evaluating their anti-inflammatory effect on keratinocytes in this example.

age spot = test: Skin whitening test: age spot photography, Reverse Photo Engineering quantitative analysis; assay type: in vivo, human; conditions: for Age Spot Reduction - Reverse Photo Engineering Data, Max % Improvement / Age Spot Reduction - Reverse Photo Engineering Data, % Difference: 0.2% Ac-Gly-β-Ala sample
Experimental: In this example, the in-vivo skin test is finished by AMA Laboratories USA. The skin color changes are evaluated with Minolta chromameter color computer system. The Age spot photography is evaluated with Reverse Photo Engineering Quantitative Analysis.
In terms of age spot photography, the participants were 5 women aged 38-49 years old, wherein four of the participants were caucasian, and one was Asian. The participants were tested before (baseline), and after using 14, 28, 56 days with high-resolution digital camera, then Reverse Photo Engineering quantitative analysis to perform the age spot change evaluation.

[3] = test system: Human IL-6 secretion, Normal Human Epidermal Keratinocytes (NHEK); test: Human IL-6 production in UVB-irradiated NHEK (ELISA); assay type: cell-based; conditions: for Human IL-6 Content, Average: 40 mJ/cm^2 UVB; for Human IL-6 Content, Average / Human IL-6 Content, Entry 1 / Human IL-6 Content, Entry 2 / Human IL-6 Content, Entry 3 / Human IL-6 Content, Entry4: Positive Control 100%; for Human IL-6 Content, Entry 1 / Human IL-6 Content, Entry 2: passage 2 + 2, 40 mJ/cm^2 UVB; for Human IL-6 Content, Entry 3 / Human IL-6 Content, Entry4: passage 2 + 3, 40 mJ/cm^2 UVB
Experimental: as §1, §2, §3, §4, §5, §6, §7, §8, §9, §10, §11, §12, §13, §14, §15, §16

Raw264.7 cells = test: Cell viability on Raw264.7; assay type: cell-based, Murine; conditions: for cell viability on Raw264.7, Entry 2: passage N + 5; for cell viability on Raw264.7, Entry 2 / cell viability on Raw264.7, Entry 3 / cell viability on Raw264.7, Entry 1 / cell viability on Raw264.7, Average: with LPS & IFN-r, Positive Control 100%; for cell viability on Raw264.7, Entry 3: passage N + 6; for cell viability on Raw264.7, Entry 1: passage N + 7
Experimental: 4.4. Cell Viability is Tested by Neutral Red Uptake Experience or MTT Assay.

CC(=O)NCC(=O)NCCC(=O)O [Ac-Gly-β-Ala, 3-(2-acetylamino-acetylamino)-propionic acid]
MIP-2 production, dose dependence ([1]; 0.05%-0.4%, Raw264.7): inhibited MIP-2 production in dose-dependent manner
Mouse MIP-2 Content, Average ([1]; 0.05%): 78%
Mouse MIP-2 Content, Entry 2 ([1]; 0.05%): 79%
Mouse MIP-2 Content, Entry 1 ([1]; 0.05%): 75%
Mouse MIP-2 Content, Entry 3 ([1]; 0.05%): 81%
Mouse MIP-2 Content, Average ([1]; 0.10%): 65%
Mouse MIP-2 Content, Entry 2 ([1]; 0.10%): 66%
Mouse MIP-2 Content, Entry 1 ([1]; 0.10%): 64%
Mouse MIP-2 Content, Entry 3 ([1]; 0.10%): 65%
Mouse MIP-2 Content, Average ([1]; 0.20%): 48%
Mouse MIP-2 Content, Entry 2 ([1]; 0.20%): 44%
Mouse MIP-2 Content, Entry 1 ([1]; 0.20%): 50%
Mouse MIP-2 Content, Entry 3 ([1]; 0.20%): 48%
Mouse MIP-2 Content, Average ([1]; 0.40%): 31%
Mouse MIP-2 Content, Entry 2 ([1]; 0.40%): 32%
Mouse MIP-2 Content, Entry 1 ([1]; 0.40%): 21%
Mouse MIP-2 Content, Entry 3 ([1]; 0.40%): 38%
IL-8 production, dose dependence ([2]; 0.05%-0.4%, UVB): inhibited IL-8 production in dose-dependent manner
Human IL-8 Content, Average ([2]; Table 7, 0.05%): 97%
Human IL-8 Content, Entry 1 ([2]; Table 7, 0.05%): 107%
Human IL-8 Content, Entry 2 ([2]; Table 7, 0.05%): 81%
Human IL-8 Content, Entry 3 ([2]; Table 7, 0.05%): 103%
Human IL-8 Content, Average ([2]; Table 7, 0.10%): 80%
Human IL-8 Content, Entry 1 ([2]; Table 7, 0.10%): 76%
Human IL-8 Content, Entry 2 ([2]; Table 7, 0.10%): 70%
Human IL-8 Content, Entry 3 ([2]; Table 7, 0.10%): 93%
Human IL-8 Content, Average ([2]; Table 7, 0.20%): 69%
Human IL-8 Content, Entry 1 ([2]; Table 7, 0.20%): 77%
Human IL-8 Content, Entry 2 ([2]; Table 7, 0.20%): 72%
Human IL-8 Content, Entry 3 ([2]; Table 7, 0.20%): 59%
Human IL-8 Content, Entry 1 ([2]; Table 7, 0.40%): 10%
Human IL-8 Content, Entry 2 ([2]; Table 7, 0.40%): 5%
Human IL-8 Content, Entry 3 ([2]; Table 7, 0.40%): 13%
Age Spot Reduction - Reverse Photo Engineering Data, Max % Improvement (age spot; Day 14): −51.67%
Age Spot Reduction - Reverse Photo Engineering Data, % Difference (age spot; Day 14 vs baseline): −41.47%*
Age Spot Reduction - Reverse Photo Engineering Data, Max % Improvement (age spot; Day 28): −80.63%
Age Spot Reduction - Reverse Photo Engineering Data, % Difference (age spot; Day 28 vs baseline): −63.37%
Age Spot Reduction - Reverse Photo Engineering Data, Max % Improvement (age spot; Day 56): −87.40%
Age Spot Reduction - Reverse Photo Engineering Data, % Difference (age spot; Day 56 vs baseline): −73.07%*
quantitative analyzed data for the age spot change evaluation (age spot; sample containing 0.2% Ac-Gly-β-Ala): significantly decreased
IL-6 production, dose dependence ([3]; 0.05%-0.4%, UVB): dose-dependently inhibited
Human IL-6 Content, Average ([3]; Table 6, 0.05%): 59%
Human IL-6 Content, Entry 1 ([3]; Table 6, 0.05%): 68%
Human IL-6 Content, Entry 2 ([3]; Table 6, 0.05%): 58%
Human IL-6 Content, Entry 3 ([3]; Table 6, 0.05%): 49%
Human IL-6 Content, Entry4 ([3]; Table 6, 0.05%): 62%
Human IL-6 Content, Average ([3]; Table 6, 0.10%): 34%
Human IL-6 Content, Entry 1 ([3]; Table 6, 0.10%): 43%
Human IL-6 Content, Entry 2 ([3]; Table 6, 0.10%): 25%
Human IL-6 Content, Entry 3 ([3]; Table 6, 0.10%): 28%
Human IL-6 Content, Entry4 ([3]; Table 6, 0.10%): 42%
Human IL-6 Content, Average ([3]; Table 6, 0.20%): 15%
Human IL-6 Content, Entry 1 ([3]; Table 6, 0.20%): 19%
Human IL-6 Content, Entry 2 ([3]; Table 6, 0.20%): 10%
Human IL-6 Content, Entry 3 ([3]; Table 6, 0.20%): 10%
Human IL-6 Content, Entry4 ([3]; Table 6, 0.20%): 20%
Human IL-6 Content, Entry 1 ([3]; Table 6, 0.40%): 0%
Human IL-6 Content, Entry 2 ([3]; Table 6, 0.40%): 0%
Human IL-6 Content, Entry 3 ([3]; Table 6, 0.40%): 0%
Human IL-6 Content, Entry4 ([3]; Table 6, 0.40%): 10%
cell viability on Raw264.7, Entry 2 (Raw264.7 cells; 0.05%): 101%
cell viability on Raw264.7, Entry 3 (Raw264.7 cells; 0.05%): 89%
cell viability on Raw264.7, Entry 1 (Raw264.7 cells; 0.05%): 101%
cell viability on Raw264.7, Average (Raw264.7 cells; 0.05%): 96%
cell viability on Raw264.7, Entry 2 (Raw264.7 cells; 0.10%): 104%
cell viability on Raw264.7, Entry 3 (Raw264.7 cells; 0.10%): 87%
cell viability on Raw264.7, Entry 1 (Raw264.7 cells; 0.10%): 95%
cell viability on Raw264.7, Average (Raw264.7 cells; 0.10%): 97%
cell viability on Raw264.7, Entry 2 (Raw264.7 cells; 0.20%): 98%
cell viability on Raw264.7, Entry 3 (Raw264.7 cells; 0.20%): 91%
cell viability on Raw264.7, Entry 1 (Raw264.7 cells; 0.20%): 90%
cell viability on Raw264.7, Average (Raw264.7 cells; 0.20%): 100%
cell viability on Raw264.7, Entry 2 (Raw264.7 cells; 0.40%): 77%
cell viability on Raw264.7, Entry 3 (Raw264.7 cells; 0.40%): 89%
cell viability on Raw264.7, Entry 1 (Raw264.7 cells; 0.40%): 86%
cell viability on Raw264.7, Average (Raw264.7 cells; 0.40%): 88%
Cell viability (Raw264.7 cells; Raw264.7, all of dosing solution (0.05-0.4%)): higher than 85%
